# Patent US20250100961A1, “CHEMICAL ENTITIES FOR TREATING ACUTE MUSCULOSKELETAL PAIN, NON-SPECIFIC LOW-BACK PAIN, INFLAMMATORY ARTHRITIS RELATED DISEASES AND CONDITIONS, AND COMPOSITIONS AND METHODS THEREOF” (X-Cutag Therapeutics (Suzhou) Limited, priority 2023, published 2025)
# Key:
# [1] = Co-incubation of methocarbamol and CTG06-05 in rat liver microsomes (1/1); format: in vitro ADME; settings: co-incubated 1/1, FIG. 1
# Source text: Differentiation in drug elimination half-lives. […] The elimination half-life (T1/2) is the time it takes for the elimination processes to reduce the concentration level or the amount of drug in the system by 50%. Elimination half-life is a composite pharmacokinetic parameter determined by both clearance and volume of distribution (Vd). Elimination half-life is increased by an increase in volume of distribution or a decrease in clearance, and vice versa.
# Preparation of Reaction Mixture: The microsome reaction mixtures were prepared as follows: for a total volume of 285 μL of reaction mixture, 274.5 μL of 1×PBS, 3 μL of the test compound, and 7.5 μL of 5 mg/mL microsomes were added. As a negative control, microsome-free samples were prepared by substituting the microsome solution in the reaction mixture with an equal volume of 1×Phosphate Buffer Solution (pH 7.4). The reaction mixture was prepared in triplicates. In addition, dextromethorphan was used in this assay as a positive control.
# Incubation and Processing of Reaction: The reaction mixture was initiated by adding 10 μL of NADPH and incubated in a water bath at 37° C. […]
# LC-MS/MS analysis: Reversed-phase liquid chromatographic separation was carried out using ACE 3 C18 column (50×2.1 mm id, 3 μm). […] Compounds were monitored in positive mode over a five-minute acquisition period using a triple quadrupole mass spectrometer. […]
# [2] = IV co-administration of CTG06-05 and methocarbamol (1:1) to mice, plasma concentrations by LC-MS/MS; format: in vivo; settings: mouse plasma, 1/1 co-administration, IV 0.5 mg/kg each, FIG. 2
# Description: Example 2: Co-Administration of CTG06-05 and Methocarbamol (1:1) to Mice and LC-MS/MS Analysis of Mouse Plasma Samples
# Mouse plasma samples were collected at intervals of 2, 7, 10, 15, 30, 45, and 60 minutes after an IV dose of CTG06-05 and methocarbamol at a 1:1 ratio (0.5 mg/kg each). Plasma samples were extracted via protein precipitation. The supernatant at each time point was transferred to a clean vial and analyzed by LC-MS/MS as described in Example 1.
# [3] = Co-administration of methocarbamol and CTG06-05 in rats, plasma time-concentration curves; format: in vivo, rat
# Source text: Differentiation in drug toxicity profiles. Methocarbamol and CTG06-05 were co-administered in rats and plasma samples were collected at various timepoints. […] This indicates a distinct toxicity profile for CTG06-05 compared to methocarbamol, particularly when the toxicity is driven by Cmax. Cmax is the maximum (or peak) plasma concentration that a drug achieves in a specified compartment or test area of the body after the drug has been administered.
# Differentiation in drug distribution volumes. Concentration ratios of CTG06-05 to methocarbamol in rat plasma samples from the aforementioned experiment were determined. […] Drug distribution volume (Vd) is defined as the total amount of drug in the body divided by its concentration in plasma. Vd reflects the degree to which the drug is present in extravascular tissues rather than in the plasma. Therefore, when the total amount of drug is the same, for example, 1:1 co-administration, drug plasma concentration is a direct parameter in Vd comparison. In other words, the higher the concentration, the lower the Vd.
# [4] = Administration of CTG06-06 and methocarbamol to rats, LC-MS/MS of urine for parent drug and conjugates; format: in vivo; settings: rat urine
# Source text: Differentiation in drug conjugation reactions. […] […] Conjugation is a phase II metabolism reaction in which an acid, for example, glucuronic acid, acts as a conjugating agent to link to a phase I metabolite covalently. The conjugate so formed would be excreted to urine. To most drugs, this is a necessary detoxicating process. As for methocarbamol, this could be a disadvantage because the acid directly forms a conjugate with the drug itself, not its metabolite, and thus, to reduce drug plasma concentration level immediately after administration. This is due to the presence of an OH group in the chemical structure of methocarbamol, which readily allows it to form conjugates with an acid. To inhibit this pathway, CTG06-06 was designed with the OH group replaced by a fluorine (F). This modification is anticipated to slow the drug elimination rate while maintaining a consistently high drug plasma concentration.
# Example 3: Co-Administration of CTG06-06 and Methocarbamol (1:1) to Rats and LC-MS/MS Analysis of Rat Urine Samples
# Rat urine samples were collected after an oral dose of CTG06-06 and methocarbamol at 1:1 ratio (0.5 mg/kg each).
# [5] = oral; cited from earlier work
# [6] = system: liver; settings: in vivo; cited from earlier work
# [7] = system: skeletal muscle contractility or motor nerve fiber; settings: cited from earlier work
smiles,measurement,setting,value
[2H]c1c([2H])c([2H])c(OC([2H])([2H])[2H])c(OCC(O)COC(N)=O)c1[2H] (stereo not drawn) [CTG06-05],drug elimination half-life compared to methocarbamol,[1],longer drug elimination half-life compared to methocarbamol
same,C0 compared to methocarbamol,[2],lower C0
same,T1/2 compared to methocarbamol,[2],longer T1/2
same,drug distribution volume (Vd) compared to methocarbamol,[3]; inferred from plasma concentrations after 1:1 co-administration,lower Vd value than methocarbamol
same,initial concentration in plasma compared to methocarbamol,"[3]; rat plasma, co-administered, FIG. 2",lower than that of methocarbamol
same,concentration ratio of CTG06-05 to methocarbamol in plasma,"[3]; rat plasma, co-administered, FIG. 3",increased with time
same,later concentration in plasma compared to methocarbamol,"[3]; rat plasma, co-administered, later timepoints, FIG. 2",eventually exceeded that of methocarbamol
COc1ccccc1OCC(F)COC(N)=O (stereo not drawn) [CTG06-06],drug conjugation reaction,[4]; separate administration (FIG. 4 legend),eliminates the drug conjugation reaction in rats
COc1ccccc1OCC(O)COC(N)=O (stereo not drawn) [methocarbamol],conjugates of the drug in urine,"[4]; co-administered, oral 0.5 mg/kg each, LC-MS/MS, FIG. 4",methocarbamol and its conjugates were detected
same,time to peak plasma concentration,[5],two
same,liver toxicity,[6],No liver toxicity is observed
same,direct effect on skeletal muscle contractility or motor nerve fiber,[7],no direct effect
